Values of other authors in US4913906A, “Novel controlled release dosage form of valproic acid” (priority 1985, dated 1990).

Assays:
[1] = all currently used antiepileptics

CCCC(CCC)C(N)=O [Valpromide, valpromide]
fluctuations in the drug plasma level (chronic valpromide treatment): fewer fluctuations in the drug plasma level
absorption rate (compared with valproic acid): slower absorption rate than valproic acid
biotransformation to VPA (in vivo): biotransform to VPA before reaching the systemic circulation

CCCC(CCC)C(=O)O [VPA, valproic acid]
elimination half-life compared with other antiepileptics [1]: shortest elimination half-life of all currently used antiepileptics
